Where two headings read alike, the source gives them in different places.
Key:
sstr1 = biological target: T1, sstr1 (Homo sapiens, UniProt P30872); assay: standard filtration competitive binding assay, sstr1 membranes; conditions: 0.2 nM 125I standard
T1 construct: purchased PerkinElmer; host or cells: Chinese hamster ovary K1 cells (transfected)
Description: After successful synthesis, the activity of ^19F-AMBF3-TATE was examined in vitro. Membranes from Chinese hamster ovary K1 cells transfected with sstr1, sstr2, sstr3, sstr5, and [^125I]-Tyr-somatostatin-14 were obtained from PerkinElmer. […] Briefly, membranes ([…]) were incubated with the ^125I-labelled standard at a concentration of 0.05 nM for sstr2 or 0.2 nM for other subtypes. […] After incubation (37° C., 1 h), the wells were aspirated and washed 8 times with 50 mM ice-cold buffer (Tris-HCl, pH 7.4) over grade GF/B filters. The filters were removed and counted by a γ counter (Cobra II; Packard). Data were fitted to a 1-site competition model (GraphPad Prism 6.1 software) to calculate Ki.

[1] = system: AR42J tumour-bearing mice; conditions: excess competitor 69/71Ga-DOTATATE
Description: After labelling, imaging was undertaken. […] Rat pancreatic adenocarcinoma cells (10^7 AR42J cells) were freshly expanded in a mixture of phosphate-buffered saline and Matrigel (Corning) and inoculated subcutaneously in female immunocompromised mice (NOD SCID [non-obese diabetic severe combined immunodeficient] IL2r-γ-null, bred in house). The tumours were grown for 2 wk until they reached 5-7 mm in diameter. […] Sixty minutes after injection, the mice were anesthetized with isoflurane and euthanized by carbon dioxide. The organs were harvested, rinsed with saline, blotted dry, and collected in previously weighed tubes. The tubes containing the organs were counted in a Cobra-II γ counter. The tissue weight and associated count per minute were used to calculate the percentage injected dose per gram of tissue (% ID/g). Images were acquired using a multimodality PET/CT system (Inveon; Siemens).

[2] = 19F-NMR kinetic analysis of solvolysis/defluoridation of AMBF3; type: physicochemical
Description: Data are scaled 1000,000 min.

T1 sequence (P30872 whole entry): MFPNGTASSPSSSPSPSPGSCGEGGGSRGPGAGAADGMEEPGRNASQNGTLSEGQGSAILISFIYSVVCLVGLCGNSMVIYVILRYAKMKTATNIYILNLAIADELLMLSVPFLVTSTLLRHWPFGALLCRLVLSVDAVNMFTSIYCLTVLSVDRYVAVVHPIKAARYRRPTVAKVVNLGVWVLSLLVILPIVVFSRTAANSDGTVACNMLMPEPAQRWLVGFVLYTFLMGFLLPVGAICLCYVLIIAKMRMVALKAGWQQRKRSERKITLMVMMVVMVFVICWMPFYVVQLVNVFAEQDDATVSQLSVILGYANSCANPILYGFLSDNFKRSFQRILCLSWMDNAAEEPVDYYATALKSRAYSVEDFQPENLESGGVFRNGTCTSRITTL

## C[C@@H](O)[C@H](NC(=O)[C@@H]1CSSC[C@H](NC(=O)[C@@H](Cc2ccccc2)NC(=O)Cn2cc(C[N+](C)(C)C[B-](F)(F)F)nn2)C(=O)N[C@@H](Cc2ccc(O)cc2)C(=O)N[C@H](Cc2c[nH]c3ccccc23)C(=O)N[C@@H](CCCCN)C(=O)N[C@@H]([C@@H](C)O)C(=O)N1)C(=O)O [AMBF3-TATE]
sstr1
  displacement of binding to sstr1: No significant displacement

## ^18F-AMBF3-TATE
[1]
  blocking efficiency (tumour uptake): 97%

## C#CC[N+](C)(C)C[B-](F)(F)F [alkynyl-AMBF3, N-propargyl-N,N-dimethyl-ammoniomethyltrifluoroborate]
[2]; 19F NMR, read-out: solvolysis t1/2 (converted)
  half-life: 312 h
[2]; 19F-NMR, first-order fit (FIG. 10), read-out: half-life of defluoridation
  half-life: 0.325 h
